For 3 compounds, IC50 results are on record in ChEMBL document CHEMBL5226287, “Small organic molecules targeting the energy metabolism of Mycobacterium tuberculosis” (Eur J Med Chem, 2021).

Experiment [1] in a line: Inhibition of Mycobacterium smegmatis cytochrome bd oxidase with ATP overexpression inverted membrane vesicles. In kind it is cell membranes, Mycobacterium tuberculosis, Membrane vesicle.
Experiment [2] can be described thus: Inhibition of Mycobacterium bovis BCG cytochrome bd oxidase with ATP synthase overexpression inverted membrane vesicles. In kind it is cell membranes, Mycobacterium tuberculosis variant bovis, Membrane vesicle.
Experiment [3] is described as follows: Inhibition of Mycobacterium smegmatis cytochrome bd oxidase with ATP synthase overexpression inverted membrane vesicles. It is filed as cell membranes, Mycobacterium tuberculosis, Membrane vesicle.

By IC50 is commonly meant the concentration that gives 50% inhibition. Low values mean greater potency, high ones weaker potency.

Starred links: 1 amine or outer side, 2 acyl side, 3 side chain; linkers in the order of their positions; H or OH if unused. Non-standard residues stand in square brackets, D forms with d. Residues, ends and D or L forms follow the SMILES beside them. ξ: configuration not given here. *: point of attachment. X1 = CCC(=O)C[C@@H](O)C[C@@H](C)C[C@H](N[*:1])C(=O)[*:2]; Alaψ(CH2NMeCH2CH2OH) = C[C@@H](CN(C)CCO)N*; Decanoyl(2R-Me) = CCCCCCCC[C@@H](C)C(=O)*; Ile(3ξ) = CCC(C)[C@H](N)C(=O)O; ξβ3hP = O=C(O)CC1CCCN1; Aib = CC(C)(N)C(=O)O

As to `O=C(CNC1CCCCC1)N(c1ccccc1)c1ccccc1`, in experiment [1], the 50% inhibitory concentration (IC50) was 10.4 µM.
On the same count and under the same terms, the figure for `O=C(CNC1CCCC1)N(c1ccccc1)c1ccccc1` is 14 µM.
Consider `CCCCCCCC[C@@H](C)C(=O)N1CCCC1CC(=O)N[C@@H](C[C@H](C)C[C@H](O)CC(=O)CC)C(=O)NC(C)(C)C(=O)NC(C)(C)C(=O)N[C@H](C(=O)N[C@H](C(=O)NC(C)(C)C(=O)NC(C)(C)C(=O)N[C@@H](C)CN(C)CCO)C(C)C)C(C)CC` (stereo partly drawn) ({Decanoyl(2R-Me)}-[ξβ3hP][X1][Aib][Aib][Ile(3ξ)]V[Aib][Aib]-{Alaψ(CH2NMeCH2CH2OH)}), for which the results for the IC50 in experiment [2] and in experiment [3] were 5.2 µM and 0.5 µM, respectively.
